The target of series [1] is T1, human EP4 (Homo sapiens, UniProt P35408).
T1 construct: expressed in transfected cells; host or cells: HEK293 cells transduced with EP4 BacMam virus
As to the kind of experiment: cAMP Gs functional assay (HTRF cAMP dynamic-2). Format: cell-based. The following applies: for Emax: HEK293, HEK293 cells transfected with EP4 Bacmam virus; for EC50: 30 mins at 37° C., −Log of the molarity (M), read-out: cAMP human EP4 pEC50 (converted). Here is the method: Cloning, Baculovirus generation, large scale infection of HEK293 cells and membrane preparation: Human prostaglandin E2 receptor 4 (EP4) was cloned into pBacMam expression vector (GeneScript, UK). Transposition of EP4 DNA was performed using Invitrogen's Bac-to-Bac Baculovirus Expression Systems. P0 baculovirus was generated by transfecting SF9 Cells with bacmid DNA using Cellfectin II transfection reagent (ThermoFisher Scientific, UK). Following P0 generation P1 virus was then generated ready for large scale infection and membrane preparation. HEK293 cells were grown in DMEM (ThermoFisher Scientific, UK), supplemented with 10% heat inactivated fetal bovine serum (FBS). Cells were infected at a seeding density of 3.5 million cells/mL in 500 cm^3 flasks at 5% v/v EP4 Bacman. Expression was carried out over a 36 hr period at 37° C. with 5% CO2. The cells were removed using PBS and a cell scrapper. The cell culture was centrifuged at 2500 RPM for 10 mins at 4° C. The supernatant was then poured off and the pellet stored at −80° C. The pellet was defrosted and re-suspended in 15 mL of homogenising buffer (20 mM HEPES, 10 mM EDTA, pH 7.4). Then homogenised in mechanical homogeniser (VMR) for 10 seconds. The membrane was centrifuged in centrifuge tubes at 40,000 g for 15 mins at 4° C. The supernatant was poured away and re-suspended in 15 mL of homogenising buffer. Homogenised for 20 seconds. The membrane was centrifuged at 40,000 g for 45 mins at 4° C. The membrane was re-suspended in 3 mL of storage buffer (20 mM HEPES, 0.1 mM EDTA, pH 7.4) mixing well. The resulting membranes were then stored at −80° C.
cAMP Gs Functional Assay: cAMP production following EP4 receptor activation was determined using the Homogeneous Time-Resolved Fluorescence (HTRF) cAMP dynamic-2 assay (Cisbio, France). HEK293 cells were transfected using a 0.5% EP4 Bacmam virus for 36 hours, before dissociating the cells, and freezing at −150° C.
On the day of testing, increasing concentration of test compounds, alongside positive controls (10 uM PGE2 (Tocris, Abingdon, UK)) and negative control (DMSO (Sigma-Aldrich, UK) were added to a ProxiPlate-384 Plus, White 384-shallow well Mircoplate, (PerkinElmer, USA) using the ECHO dispense.
Cells were defrosted in a water bath and resuspended in DMEM supplemented with 10% FBS before centrifuging at 1200 RPM for 5 mins to form a pellet. The pellet was resuspended in assay buffer (DMEM+0.5 mM IBMX (Tocris, Abingdon, UK)) to 0.5×10^6 cells/mL. Cell suspension, for a final assay concentration of 5000 cell/well was added using the multidrop to the pre-dispensed assay plate. The plate was then incubated at 37° C. for 30 mins, with 5% CO2. The cAMP production was determined as manufacturer's instructions, before plates were read on a PheraStar fluorescence plate reader (BMG LabTech, Germany).
The pEC50 values (−Log of the molarity (M) in mol/liter) were calculated from the mid-point of the curve using dotmatics as shown in Table 3.
Background: TR-FRET usually uses a lanthanide donor and a delayed reading to cut background.

Series [2] can be described thus: Unidirectional Caco-2 cell permeability assay. Format: in vitro ADME. Particulars: human, n=2, apical pH 6.5, basolateral pH 7.4, 1 hour, 37° C. The method, then:
Caco-2 cells (ECACC) were seeded onto 24-well Transwell plates at 2×10^5 cells per well and used in confluent monolayers after a 21 day culture at 37° C. under 5% CO2. Test compounds were incubated at 10 μM, 0.2% DMSO final, n=2 in assay buffer (Hanks balanced salt solution supplemented with 25 mM HEPES, adjusted to pH 6.5). Hanks balanced salt solution supplemented with 25 mM HEPES, adjusted to pH 7.4 (0.2% DMSO final) was used for the basolateral chamber (as receiver).
Incubations were performed at 37° C., with samples removed from both donor and acceptor chambers at T=0 and 1 hour and compound analysed by mass spectrometry (LC-MS/MS) including an analytical internal standard (0.5 μM carbamazepine).
Apparent permeability (Papp) values are shown in Table 4 and were determined from the relationship:
Where V is the volume of each Transwell compartment (apical 125 μL, basolateral 600 μL), and concentrations are the relative MS responses for compound (normalized to internal standard) in the donor chamber before incubation and acceptor chamber at the end of the incubation Area=area of cells exposed for drug transfer (0.33 cm^2).
Lucifer Yellow (LY) was added to the apical buffer in all wells to assess viability of the cell layer. As LY cannot freely permeate lipophilic barriers, a high degree of LY transport indicates poor integrity of the cell layer and wells with a LY Papp>10×10^−6 cm/s were rejected.
Compound recovery from the wells was determined from MS responses (normalized to internal standard) in donor and acceptor chambers at the end of incubation compared to response in the donor chamber pre-incubation.

Setting [3] is: HEK293 cells transfected with EP4 Bacmam virus.

Data on eleven molecules can be found in patent publication US12492174B2, “Morpholine-3-carboxamide derivatives as prostaglandin E2 receptor 4 (EP4) agonists for the treatment of gastrointestinal and pulmonary diseases” (NXERA PHARMA UK LIMITED, priority 2022, dated 2025).

The term Emax denotes the maximal effect, on the per cent scale that the assay sets. What is called Papp A→B is the apparent permeability from the apical to the basolateral side of a cell layer.

T1 sequence (P35408 whole entry): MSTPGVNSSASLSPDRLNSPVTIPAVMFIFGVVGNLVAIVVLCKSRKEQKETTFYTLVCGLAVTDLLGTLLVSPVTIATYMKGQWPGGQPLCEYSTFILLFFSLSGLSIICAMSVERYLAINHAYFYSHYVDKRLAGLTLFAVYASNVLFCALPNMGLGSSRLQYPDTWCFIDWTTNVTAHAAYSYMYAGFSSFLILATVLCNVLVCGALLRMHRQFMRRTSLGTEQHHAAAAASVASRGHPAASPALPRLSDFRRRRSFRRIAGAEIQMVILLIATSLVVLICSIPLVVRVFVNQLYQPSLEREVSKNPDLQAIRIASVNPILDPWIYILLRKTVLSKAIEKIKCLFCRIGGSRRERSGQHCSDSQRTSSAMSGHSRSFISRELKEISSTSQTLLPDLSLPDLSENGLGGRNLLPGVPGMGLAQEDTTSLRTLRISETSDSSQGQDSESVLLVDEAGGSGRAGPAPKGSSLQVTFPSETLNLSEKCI

In series [1] (positive control 10 uM PGE2), `Cc1cc(C(N)=O)ccc1-c1cccc(CN2CCOC[C@@H]2C(=O)NC(C)c2cc(F)c(C(=O)O)c(F)c2)c1` (single isomer, unassigned) [Example 26] showed an Emax of 97%.
On to `Cc1cc(C(N)=O)ccc1-c1cccc(CN2CCOC[C@@H]2C(=O)NC(C)c2cc(F)c(C(=O)O)c(F)c2)c1` (single isomer, unassigned) [Example 27], for which the EC50 in series [1] (setting [3]) was 2.51e-07 M. Besides, the cAMP human EP4 Emax in series [1] (HEK293 cells transfected with EP4 Bacmam virus, positive control 10 uM PGE2) is 95%.
`Cc1cc(C(N)=O)ccc1-c1cncc(CN2CCOC[C@@H]2C(=O)N[C@@H](C)c2ccc(C(=O)O)cc2)c1` [Example 1, 4-((S)-1-((R)-4-((5-(4-carbamoyl-2-methylphenyl)pyridin-3-yl)methyl)morpholine-3-carboxamido)ethyl)benzoic acid] registered an Emax in series [1] (positive control 10 uM PGE2) of 96%. For the same molecule, the EC50 in series [1] (setting [3]) was 1e-08 M. Also, the Papp A→B at 1 h, 10 μM in series [2] was 0.24 ×10⁻⁶ cm/s.
For the molecule `Cc1cc(C(N)=O)ccc1-c1cccc(CN2CCOC[C@@H]2C(=O)N[C@@H](C)c2ccc(C(=O)O)cc2)n1` [Example 2, 4-[(1S)-1-[[(3R)-4-[[6-(4-carbamoyl-2-methyl-phenyl)-2-pyridyl]methyl]-morpholine-3-carbonyl]amino]ethyl]benzoic acid], the Emax in series [1] (positive control 10 uM PGE2) is 89%. In addition, in series [1] (setting [3]), the EC50 is 1e-06 M.
In series [1] (positive control 10 uM PGE2), `Cc1cc(C(N)=O)ccc1-c1cc(CN2CCOC[C@@H]2C(=O)N[C@@H](C)c2ccc(C(=O)O)cc2)ccn1` [Example 3, 4-[(1S)-1-[[(3R)-4-[[2-(4-carbamoyl-2-methyl-phenyl)-4-pyridyl]methyl]morpholine-3-carbonyl]amino]ethyl]benzoic acid] came in with an Emax of 96%. In series [1] (setting [3]), the EC50 was 6.31e-08 M. In series [2], this molecule gave a Papp A→B at 1 h, 10 μM of 0.57 ×10⁻⁶ cm/s.
In the same order, the values of `Cc1cc(C(N)=O)ccc1-c1ccnc(CN2CCOC[C@@H]2C(=O)N[C@@H](C)c2ccc(C(=O)O)cc2)c1` [Example 4, 4-[(1S)-1-[[(3R)-4-[[4-(4-carbamoyl-2-methyl-phenyl)-2-pyridyl]methyl]morpholine-3-carbonyl]amino]ethyl]benzoic acid] are 95%, 6.31e-08 M and 0.5 ×10⁻⁶ cm/s.
`Cc1cc(S(N)(=O)=O)ccc1-c1cccc(CN2CCOC[C@@H]2C(=O)N[C@@H](C)c2ccc(C(=O)O)cc2)c1` [Example 5, 4-((S)-1-((R)-4-((2′-methyl-4′-sulfamoyl-[1,1′-biphenyl]-3-yl)methyl)morpholine-3-carboxamido)ethyl)benzoic acid]: the Emax in series [1] (positive control 10 uM PGE2) was 100%. Moreover, the EC50 in series [1] (setting [3]) is 7.94e-10 M. The Papp A→B at 1 h, 10 μM in series [2] amounted to 0.59 ×10⁻⁶ cm/s.
With `Cc1cc(C(N)=O)ccc1-c1cccc(CN2CCOC[C@@H]2C(=O)N[C@@H](C)c2ccc(C(=O)O)cc2)c1` [Example 7, 4-((S)-1-((R)-4-((4′-carbamoyl-2′-methyl-[1,1′-biphenyl]-3-yl)methyl)morpholine-3-carboxamido)ethyl)benzoic acid], the Emax in series [1] (positive control 10 uM PGE2) was 99%. Besides, the EC50 in series [1] (setting [3]) was 1.58e-09 M. In addition, the Papp A→B at 1 h, 10 μM in series [2] was 0.66 ×10⁻⁶ cm/s.
`Cc1cc(OS(N)(=O)=O)ccc1-c1cccc(CN2CCOC[C@@H]2C(=O)N[C@@H](C)c2ccc(C(=O)O)cc2)c1` [Example 20, 4-((S)-1-((R)-4-((2′-methyl-4′-(sulfamoyloxy)-[1,1′-biphenyl]-3-yl)methyl)morpholine-3-carboxamido)ethyl)benzoic acid] showed an Emax in series [1] (positive control 10 uM PGE2) of 101%. In addition, in series [1] (setting [3]), the EC50 is 5.01e-10 M.
`C[C@H](NC(=O)[C@H]1COCCN1Cc1cccc(-c2ccc(S(N)(=O)=O)cc2O)c1)c1ccc(C(=O)O)cc1` [Example 29, 4-((S)-1-((R)-4-((2′-hydroxy-4′-sulfamoyl-[1,1′-biphenyl]-3-yl)methyl)morpholine-3-carboxamido)ethyl)benzoic acid]: in series [1] (positive control 10 uM PGE2), the Emax came out at 97%.
The molecule `Cc1cc(C(N)=O)ccc1-c1cc(CN2CCOC[C@@H]2C(=O)N[C@@H](C)c2ccc(C(=O)O)cc2)c[n+]([O-])c1` [Example 30, 3-(4-carbamoyl-2-methylphenyl)-5-(((R)-3-(((S)-1-(4-carboxyphenyl)ethyl)carbamoyl)morpholino)methyl)pyridine 1-oxide] had an Emax in series [1] (positive control 10 uM PGE2) of 93%. The EC50 in series [1] (setting [3]) is 1.58e-07 M.
